# In publication PMC5447464 (Gastroenterology, 2017):
# Where two headings read alike, the source gives them in different places.
# Columns and labels:
# [1] = tested on: HepG2 and Huh7 cells; experiment: In vitro anti-proliferation assay combined with sorafenib; assay type: cell-based, human; details: added at its IC30 or IC50 to a range of sorafenib concentrations
# [2] = single oral dose 40 mg/Kg, mice bearing PDX, compared with niclosamide
# [3] = tested on: Hep40; experiment: Viability of HCC cell line Hep40; assay type: cell-based, human; details: read-out: IC50 in HCC cell lines, Hep40
# [4] = tested on: control shRNA and CDC37 shRNA stable transfected Huh7; experiment: Cell viability of control shRNA and CDC37 shRNA Huh7; assay type: cell-based, human; details: 6 days of treatment
# [5] = tested on: Wnt/β-catenin, Stat3, AKT/mTOR, and EGFR/Ras/Raf pathway proteins; experiment: Western blotting of signaling proteins in PDX; assay type: in vivo, mouse; details: NEN 1,500 p.p.m in food
# [6] = tested on: orthotopic PDX from HCC patients (HCC-1, HCC-2, HCC-3); experiment: Orthotopic HCC PDX models, drug in food; assay type: in vivo, mouse; details: for PDX tumor growth (bioluminescence signals and tumor volumes): 1,500 p.p.m mixed in food, oral, vs regular chow
# [7] = target: HSP90/CDC37 complex (Homo sapiens, UniProt Q16543); assay type: biochemical; details: purified recombinant HSP90 and CDC37, ELISA and co-IP
# [8] = tested on: control shRNA and CDC37 shRNA stable transfected HepG2; experiment: Cell viability of control shRNA and CDC37 shRNA HepG2; assay type: cell-based, human; details: 6 days of treatment
# [9] = tested on: control shRNA and CDC37 shRNA stable transfected Hep3B; experiment: Cell viability of control shRNA and CDC37 shRNA Hep3B; assay type: cell-based, human; details: 6 days of treatment
# [10] = tested on: HepG2; experiment: Viability of HCC cell line HepG2; assay type: cell-based, human
# [11] = tested on: SNU-182; experiment: Viability of HCC cell line SNU-182; assay type: cell-based, human
# [12] = tested on: HSP70 and HSP27 expression; experiment: Western blot for heat shock response; assay type: cell-based; details: treated cell lines
# [13] = tested on: SNU-449; experiment: Viability of HCC cell line SNU-449; assay type: cell-based, human
# [14] = tested on: Huh7; experiment: Viability of HCC cell line Huh7; assay type: cell-based, human
# [15] = tested on: SNU-398; experiment: Viability of HCC cell line SNU-398; assay type: cell-based, human
# [16] = tested on: genetically induced liver tumors; experiment: Primary HCC mouse model; assay type: in vivo; details: 1500 p.p.m in food, 12 weeks; for number of tumor nodules in the livers: vs control food
# [17] = tested on: PLC/PRF/5; experiment: Viability of HCC cell line PLC/PRF/5; assay type: cell-based, human
# [18] = cited from earlier work
# [19] = tested on: Hep3B; experiment: Viability of HCC cell line Hep3B; assay type: cell-based, human
# [20] = tested on: SNU-423; experiment: Viability of HCC cell line SNU-423; assay type: cell-based, human
# [21] = cited from earlier work; remark: listed apart in the source
# [22] = tested on: SNU-475; experiment: Viability of HCC cell line SNU-475; assay type: cell-based, human
# [23] = target: T1, CDC37 (Homo sapiens, UniProt Q16543); experiment: Thermal Shift Assay; assay type: binding; details: DMSO control 52.3 °C
# T1 sequence (Q16543 1-378): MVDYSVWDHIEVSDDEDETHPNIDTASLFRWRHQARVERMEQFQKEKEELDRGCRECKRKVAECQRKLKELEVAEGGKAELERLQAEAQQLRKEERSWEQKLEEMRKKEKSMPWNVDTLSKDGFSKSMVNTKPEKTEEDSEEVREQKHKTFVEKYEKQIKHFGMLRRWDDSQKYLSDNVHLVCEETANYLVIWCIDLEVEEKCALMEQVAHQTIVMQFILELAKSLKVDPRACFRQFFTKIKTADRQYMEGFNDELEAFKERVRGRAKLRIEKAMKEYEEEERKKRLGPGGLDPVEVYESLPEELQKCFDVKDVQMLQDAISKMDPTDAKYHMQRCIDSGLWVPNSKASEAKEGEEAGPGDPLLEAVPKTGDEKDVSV
# [24] = tested on: HepG2 and Huh7 cells; assay type: cell-based, human; details: read-out: IC50, proliferation of HepG2 and Huh7 cells
# [25] = tested on: primary hepatocytes Hu1748; experiment: Viability of primary hepatocytes Hu1748; assay type: cell-based; details: Homo sapiens, Hepatocyte, read-out: IC50 in primary hepatocytes, Hu1748
# [26] = tested on: PDX-HCC-2; experiment: PDX; assay type: in vivo, mouse; details: PDX HCC-2, sorafenib 50 mg/Kg, NEN 200 mg/Kg or niclosamide 400 mg/Kg, daily oral gavage, four weeks
# [27] = target: T1, CDC37; experiment: Pull-down assay with niclosamide-conjugated sepharose beads; assay type: binding; details: niclosamide conjugated to epoxy-activated sepharose beads
# [28] = tested on: primary hepatocytes Hu8216; experiment: Viability of primary hepatocytes Hu8216; assay type: cell-based; details: Homo sapiens, Hepatocyte, read-out: IC50 in primary hepatocytes, Hu8216
compound,measurement,setting,value
"NCCO.O=C(Nc1ccc([N+](=O)[O-])cc1Cl)c1cc(Cl)ccc1O [NEN, niclosamide ethanolamine]",effect on IC50 of sorafenib in HCC cells,[1],reduced their IC50 values to sorafenib
same,plasma levels,[2],similarly higher
same,IC50,"[3]; viability, Hep40",740 nM
same,IC50,"[4]; read-out: IC50, CDC37 knockdown Huh7, CDC37 shRNA",930 nM
same,IC50,"[4]; read-out: IC50, mock transfected (control shRNA) Huh7, control shRNA",610 nM
same,expression levels of signaling pathway proteins,[5],decreased expression levels of proteins involved in multiple signaling pathways
same,PDX tumor growth (bioluminescence signals and tumor volumes),[6],significantly decreased PDX growth
same,body weight changes,"[6]; end of treatment period, treated vs control groups",no significant body weight changes
same,effect on HSP90/CDC37 interaction,[7],inhibited the HSP90/CDC37 interaction
same,IC50,"[8]; read-out: IC50, CDC37 knockdown HepG2, CDC37 shRNA",610 nM
same,IC50,"[8]; read-out: IC50, mock transfected (control shRNA) HepG2, control shRNA",350 nM
same,IC50,"[9]; read-out: IC50, CDC37 knockdown Hep3B, CDC37 shRNA",520 nM
same,IC50,"[9]; read-out: IC50, mock transfected (control shRNA) Hep3B, control shRNA",160 nM
same,"IC30, HepG2",[10]; HepG2,400 nM
same,IC50,"[10]; read-out: IC50 in HCC cell lines, HepG2, viability, HepG2",460 nM
same,IC50,"[11]; read-out: IC50 in HCC cell lines, SNU-182, viability, SNU-182",340 nM
same,heat shock response (HSP70 and HSP27 induction),[12],did not induce the classical heat shock response
same,IC50,"[13]; read-out: IC50 in HCC cell lines, SNU-449, viability, SNU-449",530 nM
same,"IC30, Huh7",[14]; Huh7,500 nM
same,IC50,"[14]; read-out: IC50 in HCC cell lines, Huh7, viability, Huh7",630 nM
same,IC50,"[15]; read-out: IC50 in HCC cell lines, SNU-398, viability, SNU-398",200 nM
same,weight of whole livers (liver plus tumor nodules),[16]; vs control and niclosamide groups,significantly reduced liver weight
same,number of tumor nodules in the livers,[16],visibly reduced the number of tumor nodules
same,IC50,"[17]; read-out: IC50 in HCC cell lines, PLC/PRF/5, viability, PLC/PRF/5",530 nM
same,systemic bioavailability,[18],improved water solubility and systemic bioavailability over niclosamide
same,IC50,"[19]; read-out: IC50 in HCC cell lines, Hep3B, viability",170 nM
same,IC50,"[20]; read-out: IC50 in HCC cell lines, SNU-423, viability, SNU-423",260 nM
same,water solubility,[21],improved water solubility
same,IC50,"[22]; read-out: IC50 in HCC cell lines, SNU-475, viability, SNU-475",350 nM
same,average Tm value of CDC37,[23]; 25 μM,54.97 °C
same,average Tm value of CDC37,[23]; 50 μM,56.03 °C
NCCO [ethanolamine],average Tm value of CDC37,[23]; 25 μM,52.93 °C
same,average Tm value of CDC37,[23]; 50 μM,53.2 °C
COC(=O)Nc1nc2ccc(C(=O)c3ccccc3)cc2[nH]1 [mebendazole],IC50,[24]; Homo sapiens,380 to 1650 nM
O=C(Nc1ccc([N+](=O)[O-])cc1Cl)c1cc(Cl)ccc1O [niclosamide],IC50,[25],3640 nM
same,IC50,[3]; Homo sapiens,810 nM
same,PDX tumor growth (bioluminescence signals and tumor volumes),[6],did not produce any significant effects on tumor growth
same,tumor volume,[26],did not decrease tumor volume
same,IC50,"[10]; Homo sapiens, HepG2, read-out: IC50 in HCC cell lines, HepG2",850 nM
same,IC50,"[11]; Homo sapiens, SNU-182, read-out: IC50 in HCC cell lines, SNU-182",360 nM
same,IC50,"[13]; Homo sapiens, SNU-449, read-out: IC50 in HCC cell lines, SNU-449",670 nM
same,IC50,"[14]; Homo sapiens, Huh-7, read-out: IC50 in HCC cell lines, Huh7",740 nM
same,pull-down of CDC37,[27],pulled down CDC37
same,IC50,"[15]; Homo sapiens, SNU-398, read-out: IC50 in HCC cell lines, SNU-398",240 nM
same,IC50,[28],4310 nM
same,number of tumor nodules in the livers,[16],much lesser effect than NEN
same,IC50,"[17]; Homo sapiens, PLC-PRF-5, read-out: IC50 in HCC cell lines, PLC/PRF/5",770 nM
same,systemic bioavailability,[18]; in vivo,very limited systemic bioavailability
same,IC50,"[19]; Homo sapiens, read-out: IC50 in HCC cell lines, Hep3B",200 nM
same,IC50,"[20]; Homo sapiens, SNU-423, read-out: IC50 in HCC cell lines, SNU-423",320 nM
same,IC50,[24]; Homo sapiens,650 to 1770 nM
same,IC50,"[22]; Homo sapiens, SNU-475, read-out: IC50 in HCC cell lines, SNU-475",400 nM
ivermectin,IC50,"[24]; range over HepG2 and Huh7, Supplemental Figure 8",> 10000 nM
